Molecules are shown by their SMILES.

The first test concerns Caenorhabditis elegans. Put plainly: C. elegans L1 nematicidal dose response in 96-well plates, 5 day visual score (Example 2; same procedure for Example 7, Table 3). It is filed as in vivo. Details: key to 5 Day Visual Score V1 / 5 Day Visual Score V2 / 5 Day Visual Score V3 / 5 Day Visual Score V4 / 5 Day Visual Score V6 / 5 Day Visual Score V5 / Initial HTS Run Visual Score / Follow-up HTS Run Visual Score: Dead: only stiff L1s (no movement); Dead (L4): worms are dead, but at a later larval stage; majority of worms are L1 (based on size) worms move when plate is tapped; majority of worms are L2 (based on size); majority of worms are L3 (based on size); majority of worms are L4 (based on size); AD: majority of worms are adult; #AD: 5 adult worms or less; B!: sterile (0-25 progeny); B: low broodsize (25-100 progeny); ˜B: moderate broodsize (100-250 progeny); <: reduced broodsize (250-500 progeny); OK: no effect (˜1000+ progeny). The note with it: Follow-up HTS run. The procedure, abridged: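 L1 larvae, 20 per well in NGM with 1% E. coli HB101 and antibiotic/antimycotic, exposed to six 3-fold dilutions from 70 μM down to 0.3 μM (1.4% DMSO at top). Held at 20° C; viability scored visually under 100× dissecting microscope on day 5.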
Consider `C=CCN(CC=C)c1nc(NCc2ccc(F)cc2F)ns1` [compound 293], for which the “Follow-up HTS Run % Run” value amounted to 125%, the “Follow-up HTS Run Visual Score” value is “L4/AD/B!” and the “Follow-up HTS Run mOD” value stood at 201 mOD.
In the same order, the values of `CN(CCc1ccccc1)c1nc(NCc2ccc(F)cc2F)ns1` [compound 294] are 116%, “B! (sterile (0-25 progeny))” and 187 mOD.
The corresponding values for `CN(Cc1ccccc1)c1nc(NCc2ccc(F)cc2F)ns1` [compound 295] are 128%, “B! (sterile (0-25 progeny))” and 206 mOD.
In the same order, the values of `Fc1ccc(N2CCN(c3nc(NCc4c(F)cccc4F)ns3)CC2)cc1` [compound 296] are 109%, “L4” and 175 mOD.
As to `CCN(c1nc(NCc2c(F)cccc2F)ns1)C1CCCCC1` [compound 297], the “Follow-up HTS Run % Run” value amounted to 109%, the “Follow-up HTS Run Visual Score” value is on record as “L4/AD/B” and the “Follow-up HTS Run mOD” value was 175 mOD.
Regarding `CCCCN(Cc1ccccc1)c1nc(NCc2c(F)cccc2F)ns1` [compound 298], the “Follow-up HTS Run % Run” value is recorded as 143% and the “Follow-up HTS Run mOD” value worked out at 231 mOD.

The same test, now with this note: Initial HTS run.
`C=CCN(CC=C)c1nc(NCc2ccc(F)cc2F)ns1` [compound 293]: the “Initial HTS Run % Run” value is on record as 108%, the “Initial HTS Run Visual Score” value is “L4” and the “Initial HTS Run mOD” value is given as 119 mOD.
With `CN(CCc1ccccc1)c1nc(NCc2ccc(F)cc2F)ns1` [compound 294], the “Initial HTS Run % Run” value came to 108%, the “Initial HTS Run Visual Score” value is listed as “L4/AD/B!-Few Eggs” and the “Initial HTS Run mOD” value is recorded as 119 mOD.
Take `CN(Cc1ccccc1)c1nc(NCc2ccc(F)cc2F)ns1` [compound 295]: the “Initial HTS Run % Run” value worked out at 121%, the “Initial HTS Run Visual Score” value is “L4/AD/B!-Few Eggs” and the “Initial HTS Run mOD” value stood at 133 mOD.
In the same order, the values of `Fc1ccc(N2CCN(c3nc(NCc4c(F)cccc4F)ns3)CC2)cc1` [compound 296] are 96%, “L4/AD/B!-Few Eggs” and 106 mOD.
On to `CCN(c1nc(NCc2c(F)cccc2F)ns1)C1CCCCC1` [compound 297], for which the “Initial HTS Run % Run” value is 104%, the “Initial HTS Run Visual Score” value is given as “L4/AD/B!-Few Eggs” and the “Initial HTS Run mOD” value is on record as 114 mOD.
With `CCCCN(Cc1ccccc1)c1nc(NCc2c(F)cccc2F)ns1` [compound 298], the “Initial HTS Run % Run” value was 125%, the “Initial HTS Run Visual Score” value was “L2” and the “Initial HTS Run mOD” value turned out to be 137 mOD.

Still in this test, the particulars now being: dose response, dilution V1, day 5.
`Fc1ccc(N2CCN(c3nc(NCc4c(F)cccc4F)ns3)CC2)cc1` [compound 296]: the “5 Day Visual Score V1” value is recorded as “Dead”.
In the case of `CCCCN(Cc1ccccc1)c1nc(NCc2c(F)cccc2F)ns1` [compound 298], the “5 Day Visual Score V1” value was “L4#AD/B”.

Staying with this test, now noted: dose response, dilution V2, day 5.
`C=CCN(CC=C)c1nc(NCc2ccc(F)cc2F)ns1` [compound 293]: the “5 Day Visual Score V2” value is on record as “< (reduced broodsize (250-500 progeny))”.
Still for that read-out and setting: the result for `CN(Cc1ccccc1)c1nc(NCc2ccc(F)cc2F)ns1` [compound 295] reads “B (low broodsize (25-100 progeny))”; that for `CCN(c1nc(NCc2c(F)cccc2F)ns1)C1CCCCC1` [compound 297], “B (low broodsize (25-100 progeny))”; that for `CCCCN(Cc1ccccc1)c1nc(NCc2c(F)cccc2F)ns1` [compound 298], “˜B (moderate broodsize (100-250 progeny))”.

The test is the same for the next values; noted with them: dose response, dilution V3, day 5.
In the case of `C=CCN(CC=C)c1nc(NCc2ccc(F)cc2F)ns1` [compound 293], the “5 Day Visual Score V3” value is reported as “OK (no effect (˜1000+ progeny))”.
The same measure, in the same setting: the result for `CN(CCc1ccccc1)c1nc(NCc2ccc(F)cc2F)ns1` [compound 294] reads “OK (no effect (˜1000+ progeny))”.
Still for that read-out and setting: the result for `CN(Cc1ccccc1)c1nc(NCc2ccc(F)cc2F)ns1` [compound 295] reads “B (low broodsize (25-100 progeny))”.
The same measure, in the same setting: the result for `Fc1ccc(N2CCN(c3nc(NCc4c(F)cccc4F)ns3)CC2)cc1` [compound 296] reads “B (low broodsize (25-100 progeny))”; that for `CCN(c1nc(NCc2c(F)cccc2F)ns1)C1CCCCC1` [compound 297], “OK (no effect (˜1000+ progeny))”; that for `CCCCN(Cc1ccccc1)c1nc(NCc2c(F)cccc2F)ns1` [compound 298], “OK (no effect (˜1000+ progeny))”.

Staying with this test, now noted: dose response, dilution V4, day 5.
With `C=CCN(CC=C)c1nc(NCc2ccc(F)cc2F)ns1` [compound 293], the “5 Day Visual Score V4” value is reported as “OK (no effect (˜1000+ progeny))”.
Still for that read-out and setting: the result for `CN(CCc1ccccc1)c1nc(NCc2ccc(F)cc2F)ns1` [compound 294] reads “OK (no effect (˜1000+ progeny))”; that for `CN(Cc1ccccc1)c1nc(NCc2ccc(F)cc2F)ns1` [compound 295], “OK (no effect (˜1000+ progeny))”.
Same read-out and setting: to `Fc1ccc(N2CCN(c3nc(NCc4c(F)cccc4F)ns3)CC2)cc1` [compound 296] belongs “OK (no effect (˜1000+ progeny))”; to `CCN(c1nc(NCc2c(F)cccc2F)ns1)C1CCCCC1` [compound 297], “OK (no effect (˜1000+ progeny))”; to `CCCCN(Cc1ccccc1)c1nc(NCc2c(F)cccc2F)ns1` [compound 298], “OK (no effect (˜1000+ progeny))”.

The same test, now with this note: dose response, dilution V5, day 5.
Consider `C=CCN(CC=C)c1nc(NCc2ccc(F)cc2F)ns1` [compound 293], for which the “5 Day Visual Score V5” value is listed as “OK (no effect (˜1000+ progeny))”.
As to `CN(CCc1ccccc1)c1nc(NCc2ccc(F)cc2F)ns1` [compound 294], the “5 Day Visual Score V5” value was “OK (no effect (˜1000+ progeny))”.
The same measure, in the same setting: to `CN(Cc1ccccc1)c1nc(NCc2ccc(F)cc2F)ns1` [compound 295] belongs “OK (no effect (˜1000+ progeny))”; to `Fc1ccc(N2CCN(c3nc(NCc4c(F)cccc4F)ns3)CC2)cc1` [compound 296], “OK (no effect (˜1000+ progeny))”.
Regarding `CCN(c1nc(NCc2c(F)cccc2F)ns1)C1CCCCC1` [compound 297], the “5 Day Visual Score V5” value is reported as “OK (no effect (˜1000+ progeny))”.
Consider `CCCCN(Cc1ccccc1)c1nc(NCc2c(F)cccc2F)ns1` [compound 298], for which the “5 Day Visual Score V5” value is “OK (no effect (˜1000+ progeny))”.

The test is the same for the next values; noted with them: dose response, dilution V6, day 5.
With `C=CCN(CC=C)c1nc(NCc2ccc(F)cc2F)ns1` [compound 293], the “5 Day Visual Score V6” value is given as “OK (no effect (˜1000+ progeny))”.
The same measure, in the same setting: the result for `CN(CCc1ccccc1)c1nc(NCc2ccc(F)cc2F)ns1` [compound 294] reads “OK (no effect (˜1000+ progeny))”.
Consider `CN(Cc1ccccc1)c1nc(NCc2ccc(F)cc2F)ns1` [compound 295], for which the “5 Day Visual Score V6” value is given as “OK (no effect (˜1000+ progeny))”.
The same measure, in the same setting: the result for `Fc1ccc(N2CCN(c3nc(NCc4c(F)cccc4F)ns3)CC2)cc1` [compound 296] reads “< (reduced broodsize (250-500 progeny))”; that for `CCN(c1nc(NCc2c(F)cccc2F)ns1)C1CCCCC1` [compound 297], “OK (no effect (˜1000+ progeny))”; that for `CCCCN(Cc1ccccc1)c1nc(NCc2c(F)cccc2F)ns1` [compound 298], “OK (no effect (˜1000+ progeny))”.

The values above are taken from US20020002171A1, “Materials and methods for killing nematodes and nematode eggs” (priority 2000, published 2002).
